According to US10512631B2, “Chalcone compounds” (Beth Israel Deaconess Medical Center, Inc., priority 2015, dated 2019):

Columns and labels:
Assay type in all cases: cell-based
[1] = tested on: PC3 (prostate cancer), A549 (lung cancer), CLR2119 and PAN02 (pancreatic cancer); assay: Crystal violet staining, four cancer cell lines; settings: range over four cell lines, 72 hours, 0.01-10 μM; highest efficiency in PC3; read-out: IC50, survival of cancer cells
Method: PC3 (provided by Dr. Steven Balk's laboratory in Department of Medicine at Beth Israel Deaconess Medical Center), PANC02 and CRL2119 (provided by Dr. Pankaja Seth's laboratory in Department of Medicine at Beth Israel Deaconess Medical Center), A549 (ATCC) cell lines were cultured according to manufacturer's protocols. Briefly, PC3 were cultured in RPMI medium supplemented with 10% FBS (Atlanta). PANC-2, A549 and CRL2119 were cultured in DMEM High medium supplemented with 10% FBS (Atlanta). Human bronchial epithelial cells (BEC) were cultured in Airway Epithelial Cell Basal Medium with the Bronchial Epithelial cell growth kit (ATCC) according to manufacturer's protocol and used at passages 3-5.
Cells were seeded at 5×10^3 concentration in 96 well plates and treated with test compounds or DMSO (0.001-10 μM) for 72 hours. Culture medium was removed and cells were stained with crystal violet solution (Sigma-Aldrich) for 15 minutes while shaking at room temperature. Crystal violet was then removed and cells were repeatedly washed in water. Attached cells stained with crystal violet were dried and then resuspended in 10% acetic acid. Absorbance was measured at 562 nm. The intensity of staining corresponded directly to the number of live cells.

[2] = tested on: PC3; assay: Cytoxicity / crystal violet staining, PC3; settings: Homo sapiens, PC-3; 0.01-5 μM for 72 hours, n=4
[3] = target: T1, ASK1 kinase and STMN1 interaction (Homo sapiens, UniProt Q99683); assay: Immunoprecipitation of STMN1 / immunoblotting of P-ASK1; settings: A549 cells, 1 μM, 30 minutes
T1 construct: immunoblotting with antibody against P-ASK1 (Ser83) in A549 cells treated with 1 μM Compound 6 or DMSO; endogenous in cells; host or cells: A549 cells
T1 sequence (Q99683 1-1374): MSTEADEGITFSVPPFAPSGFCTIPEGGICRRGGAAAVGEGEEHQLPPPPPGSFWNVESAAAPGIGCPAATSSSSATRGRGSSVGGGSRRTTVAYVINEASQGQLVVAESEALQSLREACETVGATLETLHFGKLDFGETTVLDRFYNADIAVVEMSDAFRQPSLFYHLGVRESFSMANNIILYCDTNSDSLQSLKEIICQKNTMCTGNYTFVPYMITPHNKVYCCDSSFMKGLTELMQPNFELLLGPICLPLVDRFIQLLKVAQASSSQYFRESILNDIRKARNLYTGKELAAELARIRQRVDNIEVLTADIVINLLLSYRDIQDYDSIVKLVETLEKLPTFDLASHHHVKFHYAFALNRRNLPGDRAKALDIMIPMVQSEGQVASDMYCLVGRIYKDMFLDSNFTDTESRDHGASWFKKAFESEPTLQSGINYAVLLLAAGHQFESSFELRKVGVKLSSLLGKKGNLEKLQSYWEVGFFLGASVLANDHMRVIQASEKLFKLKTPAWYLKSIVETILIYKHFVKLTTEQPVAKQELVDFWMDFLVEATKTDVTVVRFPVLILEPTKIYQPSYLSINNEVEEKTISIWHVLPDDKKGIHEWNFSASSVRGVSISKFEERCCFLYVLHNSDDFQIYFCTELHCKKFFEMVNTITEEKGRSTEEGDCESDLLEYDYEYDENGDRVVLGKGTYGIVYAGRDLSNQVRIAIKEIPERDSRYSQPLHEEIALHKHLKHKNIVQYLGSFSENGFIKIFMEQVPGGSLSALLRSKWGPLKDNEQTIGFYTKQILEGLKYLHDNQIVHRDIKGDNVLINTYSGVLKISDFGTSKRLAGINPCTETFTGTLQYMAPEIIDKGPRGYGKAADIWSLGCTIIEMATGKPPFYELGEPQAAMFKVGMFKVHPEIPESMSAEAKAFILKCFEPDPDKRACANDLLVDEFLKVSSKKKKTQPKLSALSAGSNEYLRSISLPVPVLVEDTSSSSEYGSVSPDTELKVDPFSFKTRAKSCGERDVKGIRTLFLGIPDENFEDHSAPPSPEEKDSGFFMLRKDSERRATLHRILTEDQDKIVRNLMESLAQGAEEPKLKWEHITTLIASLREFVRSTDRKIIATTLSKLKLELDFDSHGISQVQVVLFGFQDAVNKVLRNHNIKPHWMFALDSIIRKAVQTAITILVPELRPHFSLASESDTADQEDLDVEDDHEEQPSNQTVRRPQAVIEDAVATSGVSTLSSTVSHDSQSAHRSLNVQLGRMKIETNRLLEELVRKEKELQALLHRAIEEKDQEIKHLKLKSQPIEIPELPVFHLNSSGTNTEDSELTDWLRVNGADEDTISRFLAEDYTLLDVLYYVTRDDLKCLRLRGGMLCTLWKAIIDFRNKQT
Method: Snap-frozen tissue samples were homogenized in ice-cold tissue lysis buffer (250 mM NaCl, 5 mM EDTA, 1% Triton X-100, 10 mM Tris-HCl; pH 7.5) containing the protease inhibitor cocktail Complete Mini (Roche). For co-immunoprecipitation, 200 μg protein lysates in RIPA buffer and the protease inhibitor cocktail were mixed with appropriate antibodies and 30 μl Protein A/G Plus-agarose beads (Santa Cruz Biotechnology) and then rotated for 1 hour at room temperature. The proteins were washed with RIPA buffer and eluted (95° C., 5 min in SDS loading buffer). Immunoblotting was performed as previously described in Chin et al., Proc. Natl. Acad. Sci. USA 2007, 104(12), 5109-14. Antibodies: P (Ser967)-ASK1 (Cell Signaling), Ask1 (Cell Signaling), P-STMN1 (Ser16) (Cell Signaling), STMN1 (Cell Signaling), 13-Actin (Sigma) were used at 1:1000 dilution.

[4] = tested on: PC3 cells; assay: Annexin V staining; settings: 24 hours
Method: PC3 cells were seeded at 1×10^5 concentration in 6 well plates 24 hours before experiment. Cells were treated with Compound 6 for 24 hours. Cells were harvested and apoptosis rate was measured using Annexin V-FITC staining according to manufacturer's protocol (BD Biosciences, San Jose, Calif.).

[5] = tested on: DNA synthesis; assay: BrDU proliferation; settings: data not shown
[6] = tested on: A549; assay: Cytoxicity / crystal violet staining, A549; settings: Homo sapiens, 0.01-5 μM for 72 hours, n=4

**Q.** How did the IC50 [1] turn out when Cn1ccc2cc(/C=C3\CCc4ccc(F)cc4C3=O)ccc21 [Compound 6, (2E)-7-fluoro-2-[(1-methyl-1H-indol-5-yl)methylidene]-1,2,3,4-tetrahydronaphthalen-1-one] was run?
**A.** Its IC50 is 140 to 300 nM.

**Q.** What about the IC50 [2] of the same compound?
**A.** The IC50 was 147 nM.

**Q.** What about the “ASK1 kinase and STMN1 interaction” value [3] of the same compound?
**A.** Its value is “significantly blocked”.

**Q.** What about the “Annexin V-positive cells” value [4] of the same compound?
**A.** Its value is “increased number of Annexin V-positive cells”.

**Q.** What about the “DNA synthesis (BrDU proliferation)” value [5] of the same compound?
**A.** Its value is “did not inhibit DNA synthesis”.

**Q.** What about the IC50 [6] of the same compound?
**A.** Its IC50 is 208 nM.
